Values quoted from earlier work, collected in US9161933B2, “Solid pharmaceutical composition comprising amlodipine and losartan and process for producing same” (HANMI SCIENCE CO., LTD, priority 2009, dated 2015).

Conditions: after food absorption

reduction of Cmax of losartan: about 10%
Compound: CCCCc1nc(Cl)c(CO)n1Cc1ccc(-c2ccccc2-c2nn[nH]n2)cc1 [losartan, 2-butyl-4-chloro-1-[[2′-(1H-tetrazol-5-yl)[1,1′-biphenyl]-4-yl]methyl]-1H-imidazol-5-methanol]
